# Assay results published in PubChem BioAssay (NCI).
#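 At the GI50, growth is halved. TGI denotes the concentration required for complete inhibition of growth.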
# Experiments:
# Assay in all cases: growth of human tumour cells (NCI), 384-well format
# A549 NSCLC = system: A549 NSCLC
# SF-295 CNS = system: SF-295 CNS
# SF-268 CNS = system: SF-268 CNS
# OVCAR-4 ovarian = system: OVCAR-4 ovarian
# HCT-116 colon = system: HCT-116 colon
# HCT-15 colon = system: HCT-15 colon
# OVCAR-5 ovarian = system: OVCAR-5 ovarian
# RPMI-8226 leukemia = system: RPMI-8226 leukemia
# OVCAR-3 ovarian = system: OVCAR-3 ovarian
# NCI-H322M lung = system: NCI-H322M lung
# PC-3 prostate = system: PC-3 prostate
# MDA-MB-231 breast = system: MDA-MB-231 breast
# M14 melanoma = system: M14 melanoma
structure (smiles),measurement,setting,value
Cc1cc(C)c(CNC(=O)c2cc(-c3ccc(CN4CCOCC4)cc3)cc3c2cnn3C2CCCC2)c(=O)[nH]1,GI50,A549 NSCLC,6.65 µM
same,TGI,A549 NSCLC,17.7 µM
same,GI50,SF-295 CNS,12 µM
same,TGI,SF-295 CNS,24.6 µM
same,GI50,SF-268 CNS,6.37 µM
same,TGI,SF-268 CNS,13.6 µM
same,GI50,OVCAR-4 ovarian,12.9 µM
same,TGI,OVCAR-4 ovarian,25.8 µM
same,GI50,HCT-116 colon,7.13 µM
same,TGI,HCT-116 colon,19.5 µM
same,GI50,HCT-15 colon,3.03 µM
same,TGI,HCT-15 colon,11.6 µM
same,GI50,OVCAR-5 ovarian,13.1 µM
same,TGI,OVCAR-5 ovarian,26 µM
same,GI50,RPMI-8226 leukemia,2.11 µM
same,TGI,RPMI-8226 leukemia,6.54 µM
same,GI50,OVCAR-3 ovarian,4.83 µM
same,TGI,OVCAR-3 ovarian,17.5 µM
same,GI50,NCI-H322M lung,12.1 µM
same,TGI,NCI-H322M lung,24.8 µM
same,GI50,PC-3 prostate,8.37 µM
same,TGI,PC-3 prostate,20.8 µM
same,GI50,MDA-MB-231 breast,8.35 µM
same,TGI,MDA-MB-231 breast,21.4 µM
same,GI50,M14 melanoma,6.87 µM
same,TGI,M14 melanoma,17.6 µM
